From ChEMBL document CHEMBL5226342, “Novel Reversible-Binding PET Ligands for Imaging Monoacylglycerol Lipase Based on the Piperazinyl Azetidine Scaffold” (J Med Chem, 2021)

Tests used:
[1] = Drug uptake in iv dosed Sprague-Dawley rat cerebral cortex measured for 90 mins by PET imaging based analysis; assay type: ADME, organism-based; conditions: in vivo, 1.5 h
[2] = Drug uptake in iv dosed rhesus monkey cortex measured after 60 mins by PET imaging based analysis; assay type: ADME, organism-based, Macaca mulatta; conditions: in vivo, 1 h
[3] = Drug uptake in iv dosed rhesus monkey pons measured after 60 mins by PET imaging based analysis; assay type: ADME, organism-based, Macaca mulatta; conditions: in vivo, 1 h
[4] = Drug uptake in iv dosed rhesus monkey striatum measured after 60 mins by PET imaging based analysis; assay type: ADME, organism-based, Macaca mulatta; conditions: in vivo, 1 h
[5] = Drug uptake in iv dosed rhesus monkey striatum by PET imaging based analysis; assay type: ADME, organism-based, Macaca mulatta; conditions: in vivo
[6] = Drug uptake in iv dosed rhesus monkey cerebellum by PET imaging based analysis; assay type: ADME, organism-based, Macaca mulatta; conditions: in vivo
[7] = Drug uptake in mouse brain treated with MAGL inhibitor, JNJ-42226314 at 15 mins post-drug administration by PET imaging based analysis; assay type: ADME, tissue-based; conditions: in vivo, 0.25 h
[8] = Drug uptake in iv dosed rhesus monkey pons by PET imaging based analysis; assay type: ADME, organism-based, Macaca mulatta; conditions: in vivo
[9] = Drug uptake in iv dosed rhesus monkey striatum pretreated with MAGL inhibitor, […] PET imaging based analysis; assay type: ADME, organism-based, Macaca mulatta; conditions: in vivo
[10] = Drug uptake in iv dosed Sprague-Dawley rat striatum measured for 90 mins by PET imaging based analysis; assay type: ADME, organism-based; conditions: in vivo, 1.5 h
[11] = Drug uptake in iv dosed CD-1 mouse liver measured after 60 mins by Ex vivo whole body biodistribution based analysis; assay type: ADME, organism-based; conditions: 1 h
[12] = Drug uptake in iv dosed CD-1 mouse pancreas measured after 60 mins by Ex vivo whole body biodistribution based analysis; assay type: ADME, organism-based; conditions: 1 h
[13] = Drug uptake in iv dosed CD-1 mouse kidney measured after 60 mins by Ex vivo whole body biodistribution based analysis; assay type: ADME, organism-based; conditions: 1 h
[14] = Metabolic stability of the compound in iv dosed Sprague-Dawley rat brain assessed as parent compound remaining measured after 60 mins by radio-HPLC analysis; assay type: ADME, organism-based; conditions: read-out: Stability
[15] = Metabolic stability of the compound in iv dosed Sprague-Dawley rat brain assessed as parent compound remaining measured after 30 mins by radio-HPLC analysis; assay type: ADME, organism-based; conditions: read-out: Stability
[16] = Drug uptake in iv dosed Sprague-Dawley rat hippocampus measured for 90 mins by PET imaging based analysis; assay type: ADME, organism-based; conditions: in vivo, 1.5 h
[17] = Drug uptake in iv dosed rhesus monkey hippocampus measured after 60 mins by PET imaging based analysis; assay type: ADME, organism-based, Macaca mulatta; conditions: in vivo, 1 h
[18] = Drug uptake in iv dosed rhesus monkey cortex pretreated with MAGL inhibitor, […] PET imaging based analysis; assay type: ADME, organism-based, Macaca mulatta; conditions: in vivo
[19] = Drug uptake in iv dosed rhesus monkey cerebellum pretreated with MAGL inhibitor, […] PET imaging based analysis; assay type: ADME, organism-based, Macaca mulatta; conditions: in vivo
[20] = Drug uptake in iv dosed rhesus monkey hippocampus pretreated with MAGL inhibitor, […] PET imaging based analysis; assay type: ADME, organism-based, Macaca mulatta; conditions: in vivo
[21] = Drug uptake in iv dosed CD-1 mouse lung measured after 60 mins by Ex vivo whole body biodistribution based analysis; assay type: ADME, organism-based; conditions: 1 h
[22] = Drug uptake in iv dosed CD-1 mouse heart measured after 60 mins by Ex vivo whole body biodistribution based analysis; assay type: ADME, organism-based; conditions: 1 h
[23] = Drug uptake in iv dosed Sprague-Dawley rat cerebellum measured for 90 mins by PET imaging based analysis; assay type: ADME, organism-based; conditions: in vivo, 1.5 h
[24] = Drug uptake in iv dosed rhesus monkey cortex by PET imaging based analysis; assay type: ADME, organism-based, Macaca mulatta; conditions: in vivo
[25] = Drug uptake in iv dosed rhesus monkey brain by PET imaging based analysis; assay type: ADME, organism-based, Macaca mulatta; conditions: in vivo
[26] = Metabolic stability of the compound in iv dosed Sprague-Dawley rat plasma assessed as parent compound remaining measured after 60 mins by radio-HPLC analysis; assay type: ADME, organism-based; conditions: read-out: Stability
[27] = Drug uptake in iv dosed CD-1 mouse small intestine measured after 60 mins by Ex vivo whole body biodistribution based analysis; assay type: ADME, organism-based; conditions: 1 h
[28] = Drug uptake in iv dosed rhesus monkey hippocampus by PET imaging based analysis; assay type: ADME, organism-based, Macaca mulatta; conditions: in vivo
[29] = Drug uptake in iv dosed Sprague-Dawley rat pons measured for 90 mins by PET imaging based analysis; assay type: ADME, organism-based; conditions: in vivo, 1.5 h
[30] = Metabolic stability of the compound in iv dosed Sprague-Dawley rat plasma assessed as parent compound remaining measured after 30 mins by radio-HPLC analysis; assay type: ADME, organism-based; conditions: read-out: Stability
[31] = Drug uptake in iv dosed rhesus monkey cerebellum measured after 60 mins by PET imaging based analysis; assay type: ADME, organism-based, Macaca mulatta; conditions: in vivo, 1 h

For `O=C(c1ccc2c(ccn2-c2ccc([18F])cc2)c1)N1CC(N2CCN(c3ncccn3)CC2)C1`, the SUVmax [1] was 1.4, the Drug uptake [2] was “Active” and the Drug uptake [3] was “Not Active”. For the same molecule, the Drug uptake [4] was “Active”, the Drug uptake [5] was “Active” and the Drug uptake [6] was “Active”. For the same molecule, the Drug uptake [7] was “Not Active”, the Drug uptake [8] was “Active” and the Drug uptake [9] was “Not Active”. For the same molecule, the Drug uptake [10] was “Active”, the Drug uptake [11] was “Active” and the Drug uptake [12] was “Not Active”. The Drug uptake [13] was “Not Active”, the remaining at 1 h [14] was 98% and the remaining at 0.5 h [15] was 95%. The Drug uptake [16] was “Active”, the Drug uptake [17] was “Active” and the Drug uptake [18] was “Not Active”. The Drug uptake [19] was “Not Active”, the Drug uptake [20] was “Not Active” and the Drug uptake [21] was “Not Active”. For the same molecule, the Drug uptake [22] was “Not Active”, the Drug uptake [23] was “Active” and the Drug uptake [24] was “Active”. For the same molecule, the SUVmax [25] was 1.2, the remaining at 1 h [26] was 40% and the Drug uptake [27] was “Active”. For the same molecule, the Drug uptake [28] was “Active”, the Drug uptake [29] was “Active” and the remaining at 0.5 h [30] was 53%. The Drug uptake [31] was “Active”.
